Laboratory results as given in ChEMBL document CHEMBL1201862, “PubChem BioAssay data set” (2004).
One block for each molecule: values may come before it. Activity calls are given as the source filed them.

Experiments:
[1] = molecular target: Beta-2 adrenergic receptor (Homo sapiens, UniProt P07550); assay: beta2AR agonists driving receptor internalization, dose response, cell-based, FAP fluorogen, flow cytometry, cherry pick 1 (AID 588763); format: functional
A-375 [2] = assay: A375 melanoma cell viability reduction, dose response, counter-screen for MITF modulator project, cherry-pick samples, set 2 (AID 540335); format: functional, cell-based; conditions: Homo sapiens
A-375 [3] = assay: MITF: Counter assay: A375 proliferation Measured in Cell-Based System Using Plate Reader - 2084-03_Inhibitor_Dose_DryPowder_Activity. [Related pubchem assays (depositor defined):AID488944]; format: functional; conditions: Homo sapiens
Jurkat = assay: SAR Analysis of small molecule inhibitors of […] specific antigen receptor-induced NF-kB activation in a Jurkat cell line using a luminescence assay - Set 3. [Related pubchem assays (depositor defined):AID435022, AID435025, AID465]; format: functional, cell-based; conditions: Homo sapiens
HEK293 [4] = assay: SAR Analysis of small molecule inhibitors of B-cell specific antigen receptor-induced NF-kB activation in a HEK-293T cell line using a luminescence assay - Set 2. [Related pubchem assays (depositor defined):AID435022, AID435025, AID489021]; format: functional, cell-based; conditions: Homo sapiens
HEK293 [5] = assay: cytotoxicity in HEK293T NF-kB-Luc cells, SAR follow-up, cytotoxicity control for NF-kB activator project, cell-based, resazurin fluorescence (AID 493251); format: functional; conditions: Homo sapiens
HEK293 [6] = assay: cells; format: functional, cell-based; conditions: Homo sapiens
[7] = molecular target: T1, Nuclear receptor subfamily 0 group B member 1 (Homo sapiens, UniProt P51843); assay: Luminescence-based cell-based high throughput dose response assay for inhibitors of the orphan nuclear receptor subfamily 0, group B, member 1 (DAX1; NR0B1). [Related pubchem assays (depositor defined):AID504766, AID504790]; format: functional
T1 sequence (P51843 whole entry): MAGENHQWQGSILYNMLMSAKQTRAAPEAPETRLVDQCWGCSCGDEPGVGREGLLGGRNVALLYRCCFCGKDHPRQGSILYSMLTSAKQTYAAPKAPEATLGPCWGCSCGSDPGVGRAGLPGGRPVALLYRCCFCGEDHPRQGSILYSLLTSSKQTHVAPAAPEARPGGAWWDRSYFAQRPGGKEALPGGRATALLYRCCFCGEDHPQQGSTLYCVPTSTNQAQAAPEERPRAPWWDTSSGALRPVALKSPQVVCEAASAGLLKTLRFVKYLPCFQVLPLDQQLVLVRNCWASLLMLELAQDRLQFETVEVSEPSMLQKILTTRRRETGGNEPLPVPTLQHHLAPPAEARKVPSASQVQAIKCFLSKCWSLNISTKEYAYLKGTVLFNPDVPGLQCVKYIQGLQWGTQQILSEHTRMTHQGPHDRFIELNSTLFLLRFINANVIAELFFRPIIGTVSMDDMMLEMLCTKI

Phospholipase D2 [8] = molecular target: T2, Phospholipase D2 (Homo sapiens, UniProt O14939); assay: PLD2 purified enzyme concentration response. [Related pubchem assays (depositor defined):AID588854]; format: functional
T2 sequence (O14939 whole entry): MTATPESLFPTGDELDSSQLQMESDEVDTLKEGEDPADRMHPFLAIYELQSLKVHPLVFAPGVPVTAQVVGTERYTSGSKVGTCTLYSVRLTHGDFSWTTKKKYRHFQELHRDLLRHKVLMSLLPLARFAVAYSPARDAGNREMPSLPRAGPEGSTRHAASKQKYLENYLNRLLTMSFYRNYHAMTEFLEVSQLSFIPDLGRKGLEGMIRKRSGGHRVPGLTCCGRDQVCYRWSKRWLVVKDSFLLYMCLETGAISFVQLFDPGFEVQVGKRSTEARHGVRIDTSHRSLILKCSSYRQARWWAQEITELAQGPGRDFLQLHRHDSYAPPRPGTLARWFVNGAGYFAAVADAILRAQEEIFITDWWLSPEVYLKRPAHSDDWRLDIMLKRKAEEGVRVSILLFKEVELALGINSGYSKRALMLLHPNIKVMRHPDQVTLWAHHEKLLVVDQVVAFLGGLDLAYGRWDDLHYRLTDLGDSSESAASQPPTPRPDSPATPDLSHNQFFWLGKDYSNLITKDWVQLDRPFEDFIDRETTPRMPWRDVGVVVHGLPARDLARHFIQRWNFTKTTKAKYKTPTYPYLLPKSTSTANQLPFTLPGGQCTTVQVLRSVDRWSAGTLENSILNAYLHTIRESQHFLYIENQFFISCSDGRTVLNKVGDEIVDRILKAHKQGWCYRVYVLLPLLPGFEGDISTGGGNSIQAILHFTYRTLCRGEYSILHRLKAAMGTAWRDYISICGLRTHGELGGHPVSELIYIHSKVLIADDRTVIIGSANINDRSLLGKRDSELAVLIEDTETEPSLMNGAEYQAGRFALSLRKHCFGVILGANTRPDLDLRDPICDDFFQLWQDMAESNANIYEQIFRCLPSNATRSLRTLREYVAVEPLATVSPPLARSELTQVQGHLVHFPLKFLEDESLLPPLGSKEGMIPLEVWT

Phospholipase D2 [9] = molecular target: T2, Phospholipase D2; assay: PLD2 inhibitor potency in cells, dose response (AID 602147); format: functional;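 also: cellular assay in HEK293 cells overexpressing GFP-tagged PLD2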
Phospholipase D1 = Phospholipase D1 (Homo sapiens, UniProt Q13393); assay: PLD1 purified enzyme concentration response. [Related pubchem assays (depositor defined):AID588854]; format: functional
Phospholipase D1, sequence (Q13393 whole entry, the tested form may be a part): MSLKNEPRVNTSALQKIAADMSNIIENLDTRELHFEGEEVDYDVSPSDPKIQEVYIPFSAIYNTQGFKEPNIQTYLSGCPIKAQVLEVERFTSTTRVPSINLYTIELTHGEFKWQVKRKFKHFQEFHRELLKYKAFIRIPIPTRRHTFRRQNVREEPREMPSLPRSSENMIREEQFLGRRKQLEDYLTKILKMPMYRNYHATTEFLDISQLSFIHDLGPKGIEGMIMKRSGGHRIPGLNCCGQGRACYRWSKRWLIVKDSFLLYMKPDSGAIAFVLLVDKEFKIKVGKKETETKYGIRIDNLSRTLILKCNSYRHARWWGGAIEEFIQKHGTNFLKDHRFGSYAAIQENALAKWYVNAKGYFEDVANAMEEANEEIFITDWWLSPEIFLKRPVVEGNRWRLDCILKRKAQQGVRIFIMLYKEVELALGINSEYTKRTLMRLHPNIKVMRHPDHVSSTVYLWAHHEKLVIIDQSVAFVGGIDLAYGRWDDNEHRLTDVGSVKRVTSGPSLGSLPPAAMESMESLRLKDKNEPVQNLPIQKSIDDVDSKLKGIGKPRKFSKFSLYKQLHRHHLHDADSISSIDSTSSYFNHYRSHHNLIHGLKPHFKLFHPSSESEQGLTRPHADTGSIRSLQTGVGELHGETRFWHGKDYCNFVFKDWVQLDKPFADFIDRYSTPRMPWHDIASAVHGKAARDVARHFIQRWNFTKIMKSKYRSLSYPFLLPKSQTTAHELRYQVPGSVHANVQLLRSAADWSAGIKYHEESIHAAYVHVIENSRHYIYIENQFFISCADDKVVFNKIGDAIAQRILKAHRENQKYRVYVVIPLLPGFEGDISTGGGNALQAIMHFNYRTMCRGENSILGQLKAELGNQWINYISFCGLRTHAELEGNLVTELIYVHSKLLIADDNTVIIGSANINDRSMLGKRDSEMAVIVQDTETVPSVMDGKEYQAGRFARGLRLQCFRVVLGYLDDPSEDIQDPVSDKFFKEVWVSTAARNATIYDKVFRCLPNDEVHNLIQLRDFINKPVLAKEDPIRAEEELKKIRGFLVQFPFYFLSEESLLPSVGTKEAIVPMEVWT

Hexokinase-1 = molecular target: T3, Hexokinase-1 (Homo sapiens, UniProt P19367); assay: SAR analysis of small molecule inhibitors of hexokinase domain containing I (HKDC1) in the hexokinase 1 selectivity assay. [Related pubchem assays (depositor defined):AID493160, AID493190]; format: functional
T3 sequence (P19367 whole entry): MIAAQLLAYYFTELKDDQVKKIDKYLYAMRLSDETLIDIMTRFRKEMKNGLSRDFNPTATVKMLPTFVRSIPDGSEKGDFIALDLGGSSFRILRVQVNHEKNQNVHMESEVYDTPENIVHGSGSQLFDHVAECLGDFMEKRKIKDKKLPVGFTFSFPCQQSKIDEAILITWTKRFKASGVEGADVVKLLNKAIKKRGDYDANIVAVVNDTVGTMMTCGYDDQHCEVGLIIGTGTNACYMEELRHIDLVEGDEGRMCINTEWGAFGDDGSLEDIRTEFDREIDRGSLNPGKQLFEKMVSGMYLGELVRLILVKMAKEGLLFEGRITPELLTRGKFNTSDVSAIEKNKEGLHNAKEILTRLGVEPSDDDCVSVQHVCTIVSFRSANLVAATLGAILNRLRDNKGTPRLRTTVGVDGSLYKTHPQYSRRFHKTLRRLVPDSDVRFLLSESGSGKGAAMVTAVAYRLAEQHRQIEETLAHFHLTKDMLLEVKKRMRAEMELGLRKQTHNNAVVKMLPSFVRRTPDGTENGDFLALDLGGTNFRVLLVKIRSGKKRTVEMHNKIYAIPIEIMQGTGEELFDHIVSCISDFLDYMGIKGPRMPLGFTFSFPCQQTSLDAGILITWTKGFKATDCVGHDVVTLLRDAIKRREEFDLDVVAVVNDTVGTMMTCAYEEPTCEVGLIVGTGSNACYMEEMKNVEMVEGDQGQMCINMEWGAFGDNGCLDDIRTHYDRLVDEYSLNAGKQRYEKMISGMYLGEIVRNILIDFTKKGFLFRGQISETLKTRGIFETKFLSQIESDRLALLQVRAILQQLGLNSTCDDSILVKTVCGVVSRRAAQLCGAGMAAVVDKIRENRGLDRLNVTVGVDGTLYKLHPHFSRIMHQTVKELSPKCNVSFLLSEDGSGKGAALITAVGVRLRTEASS

Hexokinase HKDC1 = molecular target: T4, Hexokinase HKDC1 (Homo sapiens, UniProt Q2TB90); assay: SAR analysis of small molecule inhibitors of hexokinase domain containing I (HKDC1). [Related pubchem assays (depositor defined):AID493160, AID493190]; format: functional
T4 sequence (Q2TB90 whole entry): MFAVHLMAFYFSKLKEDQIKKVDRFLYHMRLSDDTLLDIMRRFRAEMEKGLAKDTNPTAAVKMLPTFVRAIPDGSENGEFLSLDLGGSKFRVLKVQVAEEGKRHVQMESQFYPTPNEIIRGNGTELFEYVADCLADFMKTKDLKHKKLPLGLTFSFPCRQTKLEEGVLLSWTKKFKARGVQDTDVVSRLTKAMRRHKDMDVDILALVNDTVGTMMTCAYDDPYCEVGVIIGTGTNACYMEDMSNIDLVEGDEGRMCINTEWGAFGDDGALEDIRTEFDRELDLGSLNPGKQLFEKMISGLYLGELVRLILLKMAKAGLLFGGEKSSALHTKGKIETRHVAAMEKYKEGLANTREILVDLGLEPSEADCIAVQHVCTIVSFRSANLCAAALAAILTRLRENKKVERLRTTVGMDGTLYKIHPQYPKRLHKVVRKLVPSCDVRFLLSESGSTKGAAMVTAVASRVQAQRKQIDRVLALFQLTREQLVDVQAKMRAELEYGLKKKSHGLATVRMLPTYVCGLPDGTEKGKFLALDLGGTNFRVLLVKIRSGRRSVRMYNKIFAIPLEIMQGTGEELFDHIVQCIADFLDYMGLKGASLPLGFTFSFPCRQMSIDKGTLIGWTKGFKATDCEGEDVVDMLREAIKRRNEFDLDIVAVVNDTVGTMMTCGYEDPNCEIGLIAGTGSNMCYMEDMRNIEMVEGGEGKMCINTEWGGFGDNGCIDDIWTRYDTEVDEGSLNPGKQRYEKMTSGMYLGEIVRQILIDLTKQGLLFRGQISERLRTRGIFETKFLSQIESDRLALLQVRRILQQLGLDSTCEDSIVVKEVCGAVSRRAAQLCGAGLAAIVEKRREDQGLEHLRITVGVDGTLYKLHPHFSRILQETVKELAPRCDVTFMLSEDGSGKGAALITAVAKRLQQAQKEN

[10] = molecular target: Matrix metalloproteinase-14 (Homo sapiens, UniProt P50281); assay: Dose Response confirmation of uHTS hits for a small molecule inhibitors of MT1-MMP activation in a fluorescence assay set 2.; format: functional
[11] = Luminescence Cell-Based Dose Retest to Confirm Inhibitors of Cancer Stem Cells. [Related pubchem assays (depositor defined):AID2717, AID2721]; format: functional; conditions: Homo sapiens
[12] = cytotoxicity in HMLE control line with eGFP shRNA, dose response, counter-screen for HMLE_sh_ECad selective toxicity project, cell-based, HMLE_sh_eGFP, luminescence (AID 463074); format: functional, Homo sapiens;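 also: HMLE human mammary epithelial cells expressing control shRNA against eGFP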
[13] = molecular target: FAD-linked sulfhydryl oxidase ALR (Homo sapiens, UniProt P55789); assay: inhibitors of human ALR sulfhydryl oxidase, dose response, biochemical, H2O2 detection, luminescence, cherry-pick (AID 493248)
FAD-linked sulfhydryl oxidase ALR, sequence (P55789 whole entry): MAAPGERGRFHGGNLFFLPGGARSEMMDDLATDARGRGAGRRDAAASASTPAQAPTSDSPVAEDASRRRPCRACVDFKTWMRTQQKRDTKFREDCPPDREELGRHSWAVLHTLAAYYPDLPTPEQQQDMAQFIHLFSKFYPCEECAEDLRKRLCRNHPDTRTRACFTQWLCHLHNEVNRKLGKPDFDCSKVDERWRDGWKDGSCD

[14] = molecular target: Dual specificity protein kinase CLK1 (Homo sapiens, UniProt P49759); assay: CLK1 kinase inhibitors, off-target check, dose response, selectivity assay for Dyrk1A inhibitor project, biochemical, cherry-picked samples (AID 588811)
Dual specificity protein kinase CLK1, sequence (P49759 whole entry): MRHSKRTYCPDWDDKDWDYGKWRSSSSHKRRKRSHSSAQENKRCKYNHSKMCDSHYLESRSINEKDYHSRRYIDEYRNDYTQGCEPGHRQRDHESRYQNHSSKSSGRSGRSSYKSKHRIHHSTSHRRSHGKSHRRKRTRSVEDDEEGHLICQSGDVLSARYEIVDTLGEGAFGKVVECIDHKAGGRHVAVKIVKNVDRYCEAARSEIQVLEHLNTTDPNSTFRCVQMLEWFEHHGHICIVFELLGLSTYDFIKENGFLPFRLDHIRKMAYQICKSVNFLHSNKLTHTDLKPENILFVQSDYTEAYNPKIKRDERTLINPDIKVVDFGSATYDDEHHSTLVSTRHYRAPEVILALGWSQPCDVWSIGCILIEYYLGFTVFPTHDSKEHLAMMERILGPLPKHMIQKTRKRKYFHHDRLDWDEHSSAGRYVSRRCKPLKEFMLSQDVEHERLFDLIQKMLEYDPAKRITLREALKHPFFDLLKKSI

[15] = molecular target: Dual specificity tyrosine-phosphorylation-regulated kinase 1A (Rattus norvegicus, UniProt Q63470); format: biochemical, Homo sapiens
[16] = Vero cell cytotoxicity, dose response, cytotoxicity control for Vif-APOBEC3G degradation inhibitor project, Vero cells (AID 1117358); format: functional; conditions: Human immunodeficiency virus 1, Vero
[17] = molecular target: T5, Dual specificity protein phosphatase 6 (Rattus norvegicus, UniProt Q64346)
T5 sequence (Q64346 whole entry): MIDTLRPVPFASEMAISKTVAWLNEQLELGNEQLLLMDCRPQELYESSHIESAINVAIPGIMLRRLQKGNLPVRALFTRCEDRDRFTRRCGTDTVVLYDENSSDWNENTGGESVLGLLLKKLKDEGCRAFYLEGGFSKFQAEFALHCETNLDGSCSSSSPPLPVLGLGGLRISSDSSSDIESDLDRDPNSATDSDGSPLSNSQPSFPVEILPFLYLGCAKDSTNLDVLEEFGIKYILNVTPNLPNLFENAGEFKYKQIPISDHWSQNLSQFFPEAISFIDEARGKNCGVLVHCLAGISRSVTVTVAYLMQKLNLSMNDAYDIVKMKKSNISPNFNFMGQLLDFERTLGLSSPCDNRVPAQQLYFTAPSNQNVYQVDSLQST

[18] = molecular target: T6, Tyrosine-protein phosphatase non-receptor type 7 (Homo sapiens, UniProt P35236); format: functional
T6 sequence (P35236 whole entry): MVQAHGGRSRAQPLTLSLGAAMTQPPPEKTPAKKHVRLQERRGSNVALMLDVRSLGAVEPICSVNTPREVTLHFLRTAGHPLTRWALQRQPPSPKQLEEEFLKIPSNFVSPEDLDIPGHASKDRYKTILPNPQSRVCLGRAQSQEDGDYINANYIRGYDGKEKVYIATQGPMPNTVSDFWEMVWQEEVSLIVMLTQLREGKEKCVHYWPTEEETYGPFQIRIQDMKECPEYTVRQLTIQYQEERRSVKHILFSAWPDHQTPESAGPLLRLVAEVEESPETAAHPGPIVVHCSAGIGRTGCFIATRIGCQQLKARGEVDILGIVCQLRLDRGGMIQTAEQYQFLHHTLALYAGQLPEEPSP

[19] = molecular target: T5, Dual specificity protein phosphatase 6; format: functional
[20] = molecular target: Glyceraldehyde-3-phosphate dehydrogenase (Homo sapiens, UniProt P04406)
Glyceraldehyde-3-phosphate dehydrogenase, sequence (P04406 whole entry): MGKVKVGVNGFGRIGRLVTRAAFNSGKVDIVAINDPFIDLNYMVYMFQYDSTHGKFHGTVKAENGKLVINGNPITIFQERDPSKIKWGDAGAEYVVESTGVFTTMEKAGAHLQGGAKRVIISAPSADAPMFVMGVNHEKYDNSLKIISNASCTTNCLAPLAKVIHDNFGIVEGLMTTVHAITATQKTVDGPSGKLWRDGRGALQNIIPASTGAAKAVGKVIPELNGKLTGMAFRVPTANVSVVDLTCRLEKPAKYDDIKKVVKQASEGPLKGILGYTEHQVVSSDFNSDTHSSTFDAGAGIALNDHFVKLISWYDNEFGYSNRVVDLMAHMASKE

[21] = molecular target: Heat shock cognate 71 kDa protein (Homo sapiens, UniProt P11142); assay: In Vitro Hsc70 Dose Response Fluorescence Polarization Assay. [Related pubchem assays: 1072 ]
Heat shock cognate 71 kDa protein, sequence (P11142 whole entry): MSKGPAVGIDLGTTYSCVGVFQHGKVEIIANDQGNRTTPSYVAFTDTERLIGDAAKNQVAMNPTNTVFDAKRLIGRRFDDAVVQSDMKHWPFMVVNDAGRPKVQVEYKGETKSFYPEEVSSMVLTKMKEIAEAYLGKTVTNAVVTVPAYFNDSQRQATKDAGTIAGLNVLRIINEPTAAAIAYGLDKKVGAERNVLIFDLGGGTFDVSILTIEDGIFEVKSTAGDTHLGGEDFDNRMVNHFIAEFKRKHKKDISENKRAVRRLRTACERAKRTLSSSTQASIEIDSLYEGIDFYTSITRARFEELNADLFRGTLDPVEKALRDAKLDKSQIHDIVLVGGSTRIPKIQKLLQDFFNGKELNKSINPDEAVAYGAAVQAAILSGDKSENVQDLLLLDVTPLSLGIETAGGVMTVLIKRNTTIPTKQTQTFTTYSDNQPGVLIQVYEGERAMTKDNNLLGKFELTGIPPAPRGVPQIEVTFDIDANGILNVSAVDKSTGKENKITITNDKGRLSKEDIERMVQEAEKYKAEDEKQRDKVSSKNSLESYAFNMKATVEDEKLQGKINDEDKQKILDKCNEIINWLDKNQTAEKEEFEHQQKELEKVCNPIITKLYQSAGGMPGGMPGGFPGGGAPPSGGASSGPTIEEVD

[22] = molecular target: Heat shock 70 kDa protein 1A (Homo sapiens, UniProt P0DMV8); assay: Hsp70 inhibitors, SAR follow-up, biochemical, fluorescence polarization (AID 1072)
Heat shock 70 kDa protein 1A, sequence (P0DMV8 whole entry): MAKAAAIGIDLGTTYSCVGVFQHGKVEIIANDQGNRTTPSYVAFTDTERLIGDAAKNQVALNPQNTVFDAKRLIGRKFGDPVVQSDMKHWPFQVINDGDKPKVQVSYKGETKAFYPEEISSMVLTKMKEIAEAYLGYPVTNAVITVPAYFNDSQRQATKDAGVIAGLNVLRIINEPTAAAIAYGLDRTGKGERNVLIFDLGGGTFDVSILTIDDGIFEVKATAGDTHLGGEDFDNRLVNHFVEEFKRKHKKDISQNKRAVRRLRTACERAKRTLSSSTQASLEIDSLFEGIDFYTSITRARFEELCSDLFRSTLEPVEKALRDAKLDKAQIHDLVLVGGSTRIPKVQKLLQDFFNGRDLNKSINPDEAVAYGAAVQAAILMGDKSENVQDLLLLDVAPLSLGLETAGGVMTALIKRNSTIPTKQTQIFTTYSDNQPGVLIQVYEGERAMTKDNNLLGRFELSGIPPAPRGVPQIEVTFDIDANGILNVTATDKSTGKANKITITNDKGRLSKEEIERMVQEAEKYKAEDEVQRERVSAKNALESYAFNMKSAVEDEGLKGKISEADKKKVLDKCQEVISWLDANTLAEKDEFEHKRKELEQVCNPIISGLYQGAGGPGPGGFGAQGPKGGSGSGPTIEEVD

Beta-2 adrenergic receptor, sequence (P07550 whole entry): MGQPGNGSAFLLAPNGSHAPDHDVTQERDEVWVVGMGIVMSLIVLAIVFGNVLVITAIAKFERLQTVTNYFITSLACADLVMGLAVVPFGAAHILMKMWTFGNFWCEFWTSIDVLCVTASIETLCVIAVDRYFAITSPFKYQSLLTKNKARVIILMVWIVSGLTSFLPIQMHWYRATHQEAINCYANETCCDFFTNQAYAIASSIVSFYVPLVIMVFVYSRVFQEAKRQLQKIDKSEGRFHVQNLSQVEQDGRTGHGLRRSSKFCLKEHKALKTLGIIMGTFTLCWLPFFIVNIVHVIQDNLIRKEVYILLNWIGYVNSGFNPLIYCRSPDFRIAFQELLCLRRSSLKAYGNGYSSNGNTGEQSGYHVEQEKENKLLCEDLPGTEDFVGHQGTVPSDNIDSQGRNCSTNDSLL

EC50 [1]: 0.0393 µM (active)
SMILES: O=C(CCCCCn1c(=O)[nH]c2ccsc2c1=O)NCc1ccc2c(c1)OCO2

SMILES: CC(=O)c1ccc(N/C=C/C(=O)c2ccc(Br)cc2)cc1
AC50 (A-375 [2]): > 35 µM (active) | AC50 (A-375 [3]): > 35 µM (active)

SMILES: CCOc1ccc(-c2nc(CSCC(=O)NCc3ccccc3)c(C)o2)cc1
IC50 (Jurkat): > 80 µM (inactive) | IC50 (HEK293 [4]): 21.6 µM (inactive) | IC50 (HEK293 [5]): 49.3 µM (inactive)

SMILES: O=C(CSc1nnc(NC2CCCCC2)s1)Nc1ccc2c(c1)C(=O)c1ccccc1C2=O
IC50 (HEK293 [6]): > 67.5 µM (inactive) | IC50 [7]: > 67.5 µM (inactive)

SMILES: O=C(NCCN1CCC2(CC1)C(=O)NCN2c1ccc(F)cc1)c1cc2cc(F)ccc2[nH]1
IC50 (Phospholipase D2 [8]): 0.066 µM (active) | IC50 (Phospholipase D2 [9]): 0.027 µM (active) | IC50 (Phospholipase D1): 5.5 µM (active)

SMILES: O=c1c2ccccc2nc(/C=C/c2ccccc2)n1-c1ccccc1
IC50 (Hexokinase-1): > 80 µM (inactive) | IC50 (Hexokinase HKDC1): > 80 µM (inactive)

SMILES: O=C(NNc1c2ccccc2nc2ccccc12)c1ccccc1O
IC50 [10]: 60.8 µM (inactive) | AC50 [11]: 18.3 µM (active) | AC50 [12]: 22.8 µM (active) | AC50 [13]: 0.08 µM (active)

AC50 [14]: 2.03 µM (active) | AC50 [15]: 2.01 µM (active)
SMILES: O=C(Nc1nc2ccc(Cl)cc2s1)C1CCCO1 (stereo unspecified)
CC50 [16]: > 40 µM (active)

IC50 [17]: > 100 µM (inactive) | IC50 [18]: > 100 µM (not active) | IC50 [19]: > 100 µM (inactive) | IC50 [20]: > 100 µM (not active) | IC50 [21]: > 100 µM (not active) | IC50 [22]: > 100 µM (not active)
SMILES: Cc1cc(I)cc2c1NC(C(=O)O)C1CC=CC21 (stereo unspecified)
